How the values were obtained:
PqsE(WT) = molecular target: T1, PqsE(WT) (Pseudomonas aeruginosa, UniProt P20581); assay: biochemical
T1 construct: 6xHis (N); made in house; host or cells: E. coli BL21 (DE3), pET28b-6xHis-pqsE(WT) (strain SM776)

PqsE(S285W) = molecular target: T2, PqsE(S285W) (Pseudomonas aeruginosa, UniProt P20581, S285W); assay: biochemical
T2 construct: 6xHis (N); made in house; host or cells: E. coli BL21 (DE3), pET28b-6xHis-pqsE(S285W) (strain IT55)

intracellular PqsE = molecular target: T3, intracellular PqsE (Pseudomonas aeruginosa, UniProt P20581); assay type: cell-based; conditions: 8 h growth
T3 construct: endogenous in cells; host or cells: P. aeruginosa UCBPP-PA14 wild type

azeB expression = assay: azeB-luxCDABE reporter (dual pyocyanin/azeB-lux assay); conditions: 50 and 100 μM, azeB-lux reporter strains

Structure (SMILES)	IC50 (PqsE(WT)) [µM]	IC50 (PqsE(S285W)) [µM]	Effect on acetophenone levels (intracellular PqsE; 10 and 100 μM)	Effect on azeB expression (luminescence/OD600) (azeB expression)	Decrease in acetophenone (intracellular PqsE; 10 μM, wildtype P. aeruginosa) [%]	Effect on acetophenone levels at 100 μM (intracellular PqsE; 100 μM, compared to pqsE(D73A) strain)
CN1CCc2cccc3c2[C@H]1Cc1ccc(O)c(O)c1-3 [Apomorphine]	18	22	no significant effect on acetophenone levels	not accompanied by increases in azeB expression		
O=c1n(CCCN2CCN(c3cccc(Cl)c3)CC2)nc2ccccn12 [Trazodone]				not accompanied by increases in azeB expression		
O=C(CCCCCCC(=O)Nc1ccccc1)NO [Vorinostat]	1.2			not accompanied by increases in azeB expression	30	full inhibition of PqsE catalytic activity
